Measured values as given in patent US8481750B2 (Boehringer Ingelheim International GmbH, priority 2009, dated 2013).

Molecular target: LFA-1 binding to ICAM-1 (Homo sapiens, UniProt P05107+P20701)
Test: Inhibition of LFA-1 binding to ICAM-1 (LFA-1/Biotin-sICAM-1 AlphaScreen molecular assay)
Settings: highest compound concentration 1 μM in 1% DMSO, 37° C., 90 minutes
Summary of the method: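 AlphaScreen binding of purified LFA-1 to biotinylated sICAM-1 in DPBS with Ca/Mg, 2 mM MgCl2, 0.1% BSA, pH 7.1; compound top concentration 1 μM in 1% DMSO, 90 min at 37 °C. Detection with TS2/4 anti-LFA-1 acceptor beads (10 μg/mL final) and streptavidin donor beads (15 μg/mL final), room temperature in the dark.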

Chain of LFA-1 binding to ICAM-1 (P20701 26-1170): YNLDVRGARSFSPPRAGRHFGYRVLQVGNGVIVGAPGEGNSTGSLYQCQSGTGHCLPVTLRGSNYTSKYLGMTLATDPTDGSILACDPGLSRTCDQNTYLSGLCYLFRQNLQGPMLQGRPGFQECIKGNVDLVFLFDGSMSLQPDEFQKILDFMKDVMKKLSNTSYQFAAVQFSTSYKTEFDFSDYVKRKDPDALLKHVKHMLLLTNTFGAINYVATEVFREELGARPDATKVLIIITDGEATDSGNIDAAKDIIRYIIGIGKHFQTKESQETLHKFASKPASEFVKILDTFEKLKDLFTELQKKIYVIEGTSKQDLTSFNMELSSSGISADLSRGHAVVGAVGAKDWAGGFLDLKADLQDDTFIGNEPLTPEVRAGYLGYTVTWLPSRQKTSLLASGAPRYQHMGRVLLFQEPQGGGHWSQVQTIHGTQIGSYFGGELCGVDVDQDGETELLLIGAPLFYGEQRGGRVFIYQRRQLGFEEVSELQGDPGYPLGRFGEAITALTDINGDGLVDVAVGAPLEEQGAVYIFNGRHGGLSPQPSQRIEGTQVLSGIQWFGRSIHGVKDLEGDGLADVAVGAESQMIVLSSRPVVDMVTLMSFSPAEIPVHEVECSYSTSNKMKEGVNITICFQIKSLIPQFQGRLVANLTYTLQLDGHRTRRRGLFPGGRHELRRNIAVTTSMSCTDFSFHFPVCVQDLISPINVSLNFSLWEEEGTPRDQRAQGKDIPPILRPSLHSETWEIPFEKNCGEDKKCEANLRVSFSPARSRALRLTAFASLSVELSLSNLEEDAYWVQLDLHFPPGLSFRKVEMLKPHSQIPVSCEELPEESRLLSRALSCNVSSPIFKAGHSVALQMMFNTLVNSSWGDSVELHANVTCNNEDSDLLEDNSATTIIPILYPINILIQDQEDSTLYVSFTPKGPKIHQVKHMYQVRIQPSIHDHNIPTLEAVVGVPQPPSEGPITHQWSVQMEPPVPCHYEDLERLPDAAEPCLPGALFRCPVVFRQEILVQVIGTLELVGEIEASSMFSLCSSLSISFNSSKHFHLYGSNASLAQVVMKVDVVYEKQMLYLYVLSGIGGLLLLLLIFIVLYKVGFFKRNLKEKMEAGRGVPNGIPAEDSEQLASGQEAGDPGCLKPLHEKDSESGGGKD
Chain of LFA-1 binding to ICAM-1 (P05107 23-769): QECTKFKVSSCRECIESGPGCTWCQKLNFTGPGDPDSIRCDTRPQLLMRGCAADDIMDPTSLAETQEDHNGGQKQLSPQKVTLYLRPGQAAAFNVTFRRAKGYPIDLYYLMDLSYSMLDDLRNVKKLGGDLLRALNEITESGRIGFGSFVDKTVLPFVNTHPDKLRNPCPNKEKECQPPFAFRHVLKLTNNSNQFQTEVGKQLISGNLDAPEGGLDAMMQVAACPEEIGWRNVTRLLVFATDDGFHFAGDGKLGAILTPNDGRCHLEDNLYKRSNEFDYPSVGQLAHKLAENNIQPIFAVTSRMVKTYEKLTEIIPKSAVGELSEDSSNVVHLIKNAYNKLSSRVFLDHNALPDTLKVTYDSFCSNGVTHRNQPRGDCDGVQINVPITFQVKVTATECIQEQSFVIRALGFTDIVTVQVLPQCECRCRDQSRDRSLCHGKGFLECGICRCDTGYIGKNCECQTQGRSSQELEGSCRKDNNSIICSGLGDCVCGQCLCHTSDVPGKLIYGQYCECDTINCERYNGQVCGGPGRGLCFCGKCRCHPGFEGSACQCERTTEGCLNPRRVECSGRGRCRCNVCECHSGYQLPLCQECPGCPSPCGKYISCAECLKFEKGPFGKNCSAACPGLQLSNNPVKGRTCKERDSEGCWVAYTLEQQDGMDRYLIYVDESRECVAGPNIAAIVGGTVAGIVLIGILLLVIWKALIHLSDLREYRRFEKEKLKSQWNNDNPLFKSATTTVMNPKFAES

## C[C@@]1(Cc2ccc(C#N)cc2)C(=O)N(c2cc(Cl)cc(Cl)c2)c2ncc(C(=O)NC3(C(=O)NC4(c5cc(C(=O)N6CC(O)C6)ccn5)CC4)CC3)n21 [compound 87]
  IC50: 980 pM

## C[C@@]1(Cc2ccc(C#N)cc2)C(=O)N(c2cc(Cl)cc(Cl)c2)c2ncc(C(=O)NC3(C(=O)NC4(c5cc(C(=O)NCc6ccccc6)ccn5)CC4)CC3)n21 [compound 24]
  IC50: 4100 pM

## C[C@@]1(Cc2ccc(C#N)cc2)C(=O)N(c2cc(Cl)cc(Cl)c2)c2ncc(C(=O)NC3(C(=O)NC4(c5cc(C(=O)NCC(O)CO)ccn5)CC4)CC3)n21 (stereo partly shown) [compound 96]
  IC50: 740 pM

## C[C@@]1(Cc2ccc(C#N)cc2)C(=O)N(c2cc(Cl)cc(Cl)c2)c2ncc(C(=O)NC3(C(=O)NC4(c5ccc(C(=O)NCCO)cn5)CC4)CC3)n21 [compound 35]
  IC50: 390 pM

## C[C@@]1(Cc2ccc(C#N)cc2)C(=O)N(c2cc(Cl)cc(Cl)c2)c2ncc(C(=O)NC3(C(=O)NC4(c5cc(C(=O)NCc6ccccn6)ccn5)CC4)CC3)n21 [compound 79]
  IC50: 670 pM

## C[C@@H](NC(=O)c1ccc(C2(NC(=O)C3(NC(=O)c4cnc5n4[C@](C)(Cc4ccc(C#N)cc4)C(=O)N5c4cc(Cl)cc(Cl)c4)CC3)CC2)nc1)C(N)=O [compound 102]
  IC50: 370 pM

## C[C@@]1(Cc2ccc(C#N)cc2)C(=O)N(c2cc(Cl)cc(Cl)c2)c2ncc(C(=O)NC3(C(=O)NC4(c5cc(C(=O)N6CC[C@H](O)C6)ccn5)CC4)CC3)n21 [compound 103]
  IC50: 750 pM

## C[C@H](NC(=O)c1ccc(C2(NC(=O)C3(NC(=O)c4cnc5n4[C@](C)(Cc4ccc(C#N)cc4)C(=O)N5c4cc(Cl)cc(Cl)c4)CC3)CC2)nc1)c1ccccc1 [compound 33]
  IC50: 2700 pM

## C[C@@]1(Cc2ccc(C#N)cc2)C(=O)N(c2cc(Cl)cc(Cl)c2)c2ncc(C(=O)NC3(C(=O)NC4(c5ccc(C(=O)N6CC[C@@H](O)C6)cn5)CC4)CC3)n21 [compound 5]
  IC50: 590 pM

## C[C@@]1(Cc2ccc(C#N)cc2)C(=O)N(c2cc(Cl)cc(Cl)c2)c2ncc(C(=O)NC3(C(=O)NC4(c5ccc(C(=O)N6CCCC(CO)C6)cn5)CC4)CC3)n21 (stereo partly shown) [compound 29]
  IC50: 430 pM

## C[C@@]1(Cc2ccc(C#N)cc2)C(=O)N(c2cc(Cl)cc(Cl)c2)c2ncc(C(=O)NC3(C(=O)NC4(c5cccc(C(=O)NCc6ccncc6)n5)CC4)CC3)n21 [compound 26]
  IC50: 5200 pM

## CN1CCN(C(=O)c2ccnc(C3(NC(=O)C4(NC(=O)c5cnc6n5[C@](C)(Cc5ccc(C#N)cc5)C(=O)N6c5cc(Cl)cc(Cl)c5)CC4)CC3)c2)CC1 [compound 156]
  IC50: 1100 pM

## C[C@@]1(Cc2ccc(C#N)cc2)C(=O)N(c2cc(Cl)cc(Cl)c2)c2ncc(C(=O)NC3(C(=O)NC4(c5ccc(C(=O)NC(CO)CO)cn5)CC4)CC3)n21 [compound 66]
  IC50: 280 pM

## C[C@@]1(Cc2ccc(C#N)cc2)C(=O)N(c2cc(Cl)cc(Cl)c2)c2ncc(C(=O)NC3(C(=O)NC4(c5cccc(C(=O)NCCC(N)=O)n5)CC4)CC3)n21 [compound 57]
  IC50: 820 pM

## C[C@@]1(Cc2ccc(C#N)cc2)C(=O)N(c2cc(Cl)cc(Cl)c2)c2ncc(C(=O)NC3(C(=O)NC4(c5cc(C(=O)N6CCCC(C(N)=O)C6)ccn5)CC4)CC3)n21 (stereo partly shown) [compound 43]
  IC50: 740 pM

## C[C@@]1(Cc2ccc(C#N)cc2)C(=O)N(c2cc(Cl)cc(Cl)c2)c2ncc(C(=O)NC3(C(=O)NC4(c5ccc(C(=O)N6CCC[C@@H]6C(N)=O)cn5)CC4)CC3)n21 [compound 163]
  IC50: 650 pM

## C[C@@]1(Cc2ccc(C#N)cc2)C(=O)N(c2cc(Cl)cc(Cl)c2)c2ncc(C(=O)NC3(C(=O)NC4(c5ccc(C(=O)N6CCN(S(C)(=O)=O)CC6)cn5)CC4)CC3)n21 [compound 153]
  IC50: 1500 pM

## COCCNC(=O)c1ccnc(C2(NC(=O)C3(NC(=O)c4cnc5n4[C@](C)(Cc4ccc(C#N)cc4)C(=O)N5c4cc(Cl)cc(Cl)c4)CC3)CC2)c1 [compound 100]
  IC50: 900 pM

## C[C@@H](O)CNC(=O)c1ccc(C2(NC(=O)C3(NC(=O)c4cnc5n4[C@](C)(Cc4ccc(C#N)cc4)C(=O)N5c4cc(Cl)cc(Cl)c4)CC3)CC2)nc1 [compound 128]
  IC50: 470 pM

## C[C@@]1(Cc2ccc(C#N)cc2)C(=O)N(c2cc(Cl)cc(Cl)c2)c2ncc(C(=O)NC3(C(=O)NC4(c5ccc(C(=O)NCCc6ccccc6)cn5)CC4)CC3)n21 [compound 134]
  IC50: 2200 pM

## C[C@@]1(Cc2ccc(C#N)cc2)C(=O)N(c2cc(Cl)cc(Cl)c2)c2ncc(C(=O)NC3(C(=O)NC4(c5cccc(C(=O)N6CCC[C@@H]6C(N)=O)n5)CC4)CC3)n21 [compound 67]
  IC50: 2600 pM

## CC(O)CNC(=O)c1ccc(C2(NC(=O)C3(NC(=O)c4cnc5n4[C@](C)(Cc4ccc(C#N)cc4)C(=O)N5c4cc(Cl)cc(Cl)c4)CC3)CC2)nc1 (stereo partly shown) [compound 73]
  IC50: 370 pM

## CC(=O)NC1CCN(C(=O)c2ccnc(C3(NC(=O)C4(NC(=O)c5cnc6n5[C@](C)(Cc5ccc(C#N)cc5)C(=O)N6c5cc(Cl)cc(Cl)c5)CC4)CC3)c2)C1 (stereo partly shown) [compound 54]
  IC50: 1200 pM

## C[C@@]1(Cc2ccc(C#N)cc2)C(=O)N(c2cc(Cl)cc(Cl)c2)c2ncc(C(=O)NC3(C(=O)NC4(c5ccc(C(=O)NCCC(N)=O)cn5)CC4)CC3)n21 [compound 112]
  IC50: 280 pM

## C[C@@]1(Cc2ccc(C#N)cc2)C(=O)N(c2cc(Cl)cc(Cl)c2)c2ncc(C(=O)NC3(C(=O)NC4(c5ccc(C(=O)N6CCCCC6)cn5)CC4)CC3)n21 [compound 9]
  IC50: 1800 pM

## C[C@@]1(Cc2ccc(C#N)cc2)C(=O)N(c2cc(Cl)cc(Cl)c2)c2ncc(C(=O)NC3(C(=O)NC4(c5cccc(C(=O)N6CCCC(CO)C6)n5)CC4)CC3)n21 (stereo partly shown) [compound 161]
  IC50: 750 pM

## C[C@@]1(Cc2ccc(C#N)cc2)C(=O)N(c2cc(Cl)cc(Cl)c2)c2ncc(C(=O)NC3(C(=O)NC4(c5ccc(C(=O)N6CC[C@H](O)C6)cn5)CC4)CC3)n21 [compound 130]
  IC50: 740 pM

## C[C@@]1(Cc2ccc(C#N)cc2)C(=O)N(c2cc(Cl)cc(Cl)c2)c2ncc(C(=O)NC3(C(=O)NC4(c5ccc(C(=O)NCc6cccnc6)cn5)CC4)CC3)n21 [compound 21]
  IC50: 810 pM

## C[C@@]1(Cc2ccc(C#N)cc2)C(=O)N(c2cc(Cl)cc(Cl)c2)c2ncc(C(=O)NC3(C(=O)NC4(c5cc(C(=O)N6CCCC(CO)C6)ccn5)CC4)CC3)n21 (stereo partly shown) [compound 80]
  IC50: 990 pM

## C[C@@]1(Cc2ccc(C#N)cc2)C(=O)N(c2cc(Cl)c(F)c(Cl)c2)c2ncc(C(=O)NC3(C(=O)NC4(c5ccc(C(N)=O)cn5)CC4)CC3)n21 [compound 164]
  IC50: 820 pM

## C[C@@]1(Cc2ccc(C#N)cc2)C(=O)N(c2cc(Cl)cc(Cl)c2)c2ncc(C(=O)NC3(C(=O)NC4(c5cc(C(=O)NCCn6ccnc6)ccn5)CC4)CC3)n21 [compound 159]
  IC50: 420 pM

## C[C@@]1(Cc2ccc(C#N)cc2)C(=O)N(c2cc(Cl)cc(Cl)c2)c2ncc(C(=O)NC3(C(=O)NC4(c5cc(C(=O)NCCC(N)=O)ccn5)CC4)CC3)n21 [compound 107]
  IC50: 300 pM

## C[C@@]1(Cc2ccc(C#N)cc2)C(=O)N(c2cc(Cl)cc(Cl)c2)c2ncc(C(=O)NC3(C(=O)NC4(c5cc(C(=O)NCCc6ccccc6)ccn5)CC4)CC3)n21 [compound 32]
  IC50: 4000 pM

## CC(CO)NC(=O)c1cccc(C2(NC(=O)C3(NC(=O)c4cnc5n4[C@](C)(Cc4ccc(C#N)cc4)C(=O)N5c4cc(Cl)cc(Cl)c4)CC3)CC2)n1 (stereo partly shown) [compound 150]
  IC50: 810 pM

## CC(=O)NCCNC(=O)c1ccc(C2(NC(=O)C3(NC(=O)c4cnc5n4[C@](C)(Cc4ccc(C#N)cc4)C(=O)N5c4cc(Cl)cc(Cl)c4)CC3)CC2)nc1 [compound 121]
  IC50: 370 pM

## C[C@@H](CO)NC(=O)c1ccnc(C2(NC(=O)C3(NC(=O)c4cnc5n4[C@](C)(Cc4ccc(C#N)cc4)C(=O)N5c4cc(Cl)cc(Cl)c4)CC3)CC2)c1 [compound 17]
  IC50: 180 pM

## CN(C)C1CCN(C(=O)c2ccnc(C3(NC(=O)C4(NC(=O)c5cnc6n5[C@](C)(Cc5ccc(C#N)cc5)C(=O)N6c5cc(Cl)cc(Cl)c5)CC4)CC3)c2)C1 (stereo partly shown) [Compound 1]
  IC50: 1400 pM

## CC(=O)NC1CCN(C(=O)c2cccc(C3(NC(=O)C4(NC(=O)c5cnc6n5[C@](C)(Cc5ccc(C#N)cc5)C(=O)N6c5cc(Cl)cc(Cl)c5)CC4)CC3)n2)C1 (stereo partly shown) [compound 15]
  IC50: 1500 pM

## C[C@@]1(Cc2ccc(C#N)cc2)C(=O)N(c2cc(Cl)cc(Cl)c2)c2ncc(C(=O)NC3(C(=O)NC4(c5ccc(C(=O)NCC6CC6)cn5)CC4)CC3)n21 [compound 13]
  IC50: 440 pM

## C[C@H](NC(=O)c1ccnc(C2(NC(=O)C3(NC(=O)c4cnc5n4[C@](C)(Cc4ccc(C#N)cc4)C(=O)N5c4cc(Cl)cc(Cl)c4)CC3)CC2)c1)c1ccccc1 [compound 10]
  IC50: 6200 pM

## CN(C)C(=O)c1ccnc(C2(NC(=O)C3(NC(=O)c4cnc5n4[C@](C)(Cc4ccc(C#N)cc4)C(=O)N5c4cc(Cl)cc(Cl)c4)CC3)CC2)c1 [compound 38]
  IC50: 870 pM

## C[C@@]1(Cc2ccc(C#N)cc2)C(=O)N(c2cc(Cl)cc(Cl)c2)c2ncc(C(=O)NC3(C(=O)NC4(c5ccc(C(=O)N6CCC(C(N)=O)CC6)cn5)CC4)CC3)n21 [compound 147]
  IC50: 1900 pM

## CC(C)(NC(=O)c1cccc(C2(NC(=O)C3(NC(=O)c4cnc5n4[C@](C)(Cc4ccc(C#N)cc4)C(=O)N5c4cc(Cl)cc(Cl)c4)CC3)CC2)n1)c1ccccc1 [compound 167]
  IC50: 410 pM
